Data taken from ChEMBL document CHEMBL1151757, “Synthesis, radiosynthesis, and biological evaluation of fluorine-18-labeled 2beta-carbo(fluoroalkoxy)-3beta-(3'-((Z)-2-haloethenyl)phenyl)nortropanes: candidate radioligands for in vivo imaging of the serotonin transporter with positron emission tomography” (J Med Chem, 2008).

Experiments:
[1] = Ratio of drug uptake in medulla to cerebellum in anesthetized cynomolgus monkey after 9.5 mins postinjection; type: ADME, organism-based, Macaca fascicularis; conditions: in vivo
[2] = Drug uptake in anesthetized cynomolgus monkey brain occipital lobe after 18.5 mins postinjection; type: ADME, organism-based, Macaca fascicularis; conditions: in vivo
[3] = Ratio of drug uptake in occipital lobe to cerebellum in anesthetized cynomolgus monkey after 95 mins postinjection; type: ADME, organism-based, Macaca fascicularis; conditions: in vivo
[4] = Ratio of drug uptake in occipital lobe to cerebellum in anesthetized cynomolgus monkey after 175 mins postinjection; type: ADME, organism-based, Macaca fascicularis; conditions: in vivo
Putamen [5] = assay: Drug uptake in anesthetized cynomolgus monkey brain putamen after 125 mins postinjection; type: ADME, organism-based, Macaca fascicularis; conditions: in vivo
Putamen [6] = assay: Drug uptake in anesthetized cynomolgus monkey brain putamen after 235 mins postinjection; type: ADME, organism-based, Macaca fascicularis; conditions: in vivo
Midbrain [7] = assay: Drug uptake in anesthetized cynomolgus monkey brain midbrain after 155 mins postinjection; type: ADME, organism-based, Macaca fascicularis; conditions: in vivo
Pons [8] = assay: Drug uptake in anesthetized cynomolgus monkey brain pons after 1.5 mins postinjection; type: ADME, organism-based, Macaca fascicularis; conditions: in vivo, 0.025 h
Pons [9] = assay: Drug uptake in anesthetized cynomolgus monkey brain pons after 4.5 mins postinjection; type: ADME, organism-based, Macaca fascicularis; conditions: in vivo, 0.075 h
Pons [10] = assay: Drug uptake in anesthetized cynomolgus monkey brain pons after 9.5 mins postinjection; type: ADME, organism-based, Macaca fascicularis; conditions: in vivo
Pons [11] = assay: Drug uptake in anesthetized cynomolgus monkey brain pons after 95 mins postinjection; type: ADME, organism-based, Macaca fascicularis; conditions: in vivo
Pons [12] = assay: Drug uptake in anesthetized cynomolgus monkey brain pons after 115 mins postinjection; type: ADME, organism-based, Macaca fascicularis; conditions: in vivo
Pons [13] = assay: Drug uptake in anesthetized cynomolgus monkey brain pons after 175 mins postinjection; type: ADME, organism-based, Macaca fascicularis; conditions: in vivo
Medulla [14] = assay: Drug uptake in anesthetized cynomolgus monkey brain medulla after 0.5 mins postinjection; type: ADME, organism-based, Macaca fascicularis; conditions: in vivo
Medulla [15] = assay: Drug uptake in anesthetized cynomolgus monkey brain medulla after 1.5 mins postinjection; type: ADME, organism-based, Macaca fascicularis; conditions: in vivo, 0.025 h
Medulla [16] = assay: Drug uptake in anesthetized cynomolgus monkey brain medulla after 75 mins postinjection; type: ADME, organism-based, Macaca fascicularis; conditions: in vivo, 1.25 h
[17] = Ratio of drug uptake in putamen to cerebellum in anesthetized cynomolgus monkey after 9.5 mins postinjection; type: ADME, organism-based, Macaca fascicularis; conditions: in vivo
[18] = Ratio of drug uptake in putamen to cerebellum in anesthetized cynomolgus monkey after 45 mins postinjection; type: ADME, organism-based, Macaca fascicularis; conditions: in vivo, 0.75 h
[19] = Drug uptake in anesthetized cynomolgus monkey brain cerebellum after 65 mins postinjection; type: ADME, organism-based, Macaca fascicularis; conditions: in vivo
Medulla [20] = assay: Drug uptake in anesthetized cynomolgus monkey brain medulla after 115 mins postinjection; type: ADME, organism-based, Macaca fascicularis; conditions: in vivo
[21] = Drug uptake in anesthetized cynomolgus monkey brain cerebellum after 225 mins postinjection; type: ADME, organism-based, Macaca fascicularis; conditions: in vivo, 3.75 h
[22] = Ratio of drug uptake in thalamus to cerebellum in anesthetized cynomolgus monkey after 155 mins postinjection; type: ADME, organism-based, Macaca fascicularis; conditions: in vivo
Caudate [23] = assay: Drug uptake in anesthetized cynomolgus monkey brain caudate after 2.5 mins postinjection; type: ADME, organism-based, Macaca fascicularis, Caudate nucleus; conditions: in vivo
Caudate [24] = assay: Drug uptake in anesthetized cynomolgus monkey brain caudate after 6.5 mins postinjection; type: ADME, organism-based, Macaca fascicularis, Caudate nucleus; conditions: in vivo
Caudate [25] = assay: Drug uptake in anesthetized cynomolgus monkey brain caudate after 95 mins postinjection; type: ADME, organism-based, Macaca fascicularis, Caudate nucleus; conditions: in vivo
Caudate [26] = assay: Drug uptake in anesthetized cynomolgus monkey brain caudate after 155 mins postinjection; type: ADME, organism-based, Macaca fascicularis, Caudate nucleus; conditions: in vivo
Caudate [27] = assay: Drug uptake in anesthetized cynomolgus monkey brain caudate after 215 mins postinjection; type: ADME, organism-based, Macaca fascicularis, Caudate nucleus; conditions: in vivo
[28] = Ratio of drug uptake in occipital lobe to cerebellum in anesthetized cynomolgus monkey after 12.5 mins postinjection; type: ADME, organism-based, Macaca fascicularis; conditions: in vivo
Thalamus [29] = assay: Drug uptake in anesthetized cynomolgus monkey brain thalamus after 45 mins postinjection; type: ADME, organism-based, Macaca fascicularis; design: unit not given here; conditions: in vivo, 0.75 h
Putamen [30] = assay: Drug uptake in anesthetized cynomolgus monkey brain putamen after 95 mins postinjection; type: ADME, organism-based, Macaca fascicularis; design: unit not given here; conditions: in vivo
Putamen [31] = assay: Drug uptake in anesthetized cynomolgus monkey brain putamen after 105 mins postinjection; type: ADME, organism-based, Macaca fascicularis; design: unit not given here; conditions: in vivo, 1.75 h
Thalamus [32] = assay: Drug uptake in anesthetized cynomolgus monkey brain thalamus after 95 mins postinjection; type: ADME, organism-based, Macaca fascicularis; design: unit not given here; conditions: in vivo
Thalamus [33] = assay: Drug uptake in anesthetized cynomolgus monkey brain thalamus after 105 mins postinjection; type: ADME, organism-based, Macaca fascicularis; design: unit not given here; conditions: in vivo, 1.75 h
Thalamus [34] = assay: Drug uptake in anesthetized cynomolgus monkey brain thalamus after 135 mins postinjection; type: ADME, organism-based, Macaca fascicularis; design: unit not given here; conditions: in vivo, 2.25 h
Thalamus [35] = assay: Drug uptake in anesthetized cynomolgus monkey brain thalamus after 225 mins postinjection; type: ADME, organism-based, Macaca fascicularis; design: unit not given here; conditions: in vivo, 3.75 h
Midbrain [36] = assay: Drug uptake in anesthetized cynomolgus monkey brain midbrain after 2.5 mins postinjection; type: ADME, organism-based, Macaca fascicularis; design: unit not given here; conditions: in vivo
Midbrain [37] = assay: Drug uptake in anesthetized cynomolgus monkey brain midbrain after 27.5 mins postinjection; type: ADME, organism-based, Macaca fascicularis; design: unit not given here; conditions: in vivo
Midbrain [38] = assay: Drug uptake in anesthetized cynomolgus monkey brain midbrain after 55 mins postinjection; type: ADME, organism-based, Macaca fascicularis; design: unit not given here; conditions: in vivo
Midbrain [39] = assay: Drug uptake in anesthetized cynomolgus monkey brain midbrain after 75 mins postinjection; type: ADME, organism-based, Macaca fascicularis; design: unit not given here; conditions: in vivo, 1.25 h
Midbrain [40] = assay: Drug uptake in anesthetized cynomolgus monkey brain midbrain after 125 mins postinjection; type: ADME, organism-based, Macaca fascicularis; design: unit not given here; conditions: in vivo

O=C(OCC[18F])C1C2CCC(CC1c1cccc(/C=C\I)c1)N2 (stereo not given)
Ratio [1]: 0.9
Drug uptake [2]: 2.84
Ratio [3]: 0.9
Ratio [4]: 1
Drug uptake (Putamen [5]): 3.58
Drug uptake (Putamen [6]): 2.35
Drug uptake (Midbrain [7]): 3.66
Drug uptake (Pons [8]): 0.09
Drug uptake (Pons [9]): 1.2
Drug uptake (Pons [10]): 2.4
Drug uptake (Pons [11]): 3.05
Drug uptake (Pons [12]): 2.86
Drug uptake (Pons [13]): 2.36
Drug uptake (Medulla [14]): 0
Drug uptake (Medulla [15]): 0.13
Drug uptake (Medulla [16]): 3.78
Ratio [17]: 0.9
Ratio [18]: 1.2
Drug uptake [19]: 3.23
Drug uptake (Medulla [20]): 3.43
Drug uptake [21]: 1.26
Ratio [22]: 1.8
Drug uptake (Caudate [23]): 0.37
Drug uptake (Caudate [24]): 2.02
Drug uptake (Caudate [25]): 3.39
Drug uptake (Caudate [26]): 2.62
Drug uptake (Caudate [27]): 2.09
Ratio [28]: 0.7
Drug uptake (Thalamus [29]): 4.3
Drug uptake (Putamen [30]): 4.02
Drug uptake (Putamen [31]): 3.88
Drug uptake (Thalamus [32]): 3.91
Drug uptake (Thalamus [33]): 3.74
Drug uptake (Thalamus [34]): 3.33
Drug uptake (Thalamus [35]): 2.29
Drug uptake (Midbrain [36]): 0.54
Drug uptake (Midbrain [37]): 4.71
Drug uptake (Midbrain [38]): 4.91
Drug uptake (Midbrain [39]): 4.76
Drug uptake (Midbrain [40]): 4.08
